In publication PMC5237291, “Sigma-2 receptor agonist derivatives of 1-Cyclohexyl-4-[3-(5-methoxy-1,2,3,4-tetrahydronaphthalen-1-yl)propyl]piperazine (PB28) induce cell death via mitochondrial superoxide production and caspase activation in pancreatic cancer” (BMC Cancer, 2017):
Read-outs that look alike come from different tables or passages of the source.

Key:
Panc02 cells [1] = assay: ROS interference in cell viability (MTT with antioxidants); format: cell-based, mouse; details: 24 h; for Protection against sigma-2 ligand induced cell death (Panc02 viability): antioxidant 100 μM one hour prior to sigma-2 ligands 50 μM
Protocol: The interference of ROS in cell viability was indirectly determined by MTT assay reported above at 24 h. On day 1, Panc02 cells were plated at a density of 2 × 10^4 cells/well in opaque 96-well, clear-bottom plates 24 h prior to treatment. On day 2, cells were treated with the drugs (50 μM) in the presence or absence of α-tocopherol (100 μM) or N-Acetyl-L-cysteine (100 μM). After incubation (24 h) with drugs, MTT assay was performed as above.

AsPC-1 cells = assay: MTT cell viability, AsPC-1; format: cell-based; details: Homo sapiens, ASPC1, 24 h treatment, viability relative to vehicle
Protocol: (§1) Determination of cell growth was performed using the MTT assay at 24 h. On day 1, pancreatic cancer cell lines were plated at a density of 2 × 10^4 cells/well in black clear-bottom 96-well plates for 24 h prior to treatment in a volume of 100 μL. On day 2, the cells were treated for 24 h with the various drugs concentration (1 μM-100 μM). Untreated cells served as a control. The various drug-solvents (EtOH, DMSO) were added in each control to evaluate a possible solvent cytotoxicity. After the established incubation time with drugs (24 h), MTT (0.5 mg/ml) was added to each well, and after 3–4 h incubation at 37 °C, the supernatant was removed. The formazan crystals were solubilized using 100 μl of DMSO/EtOH (1:1) and the absorbance values at 570 and 630 nm were determined on the multi-mode microplate reader (BioTek instruments, Winooski, VT). Different drug concentrations were assayed in triplicates.
(§2) Statistical analyses and data plotting were performed using GraphPad Prism software version 6.03 (San Diego, CA). Results were expressed as mean ± standard error of the mean of at least 3 biological replicates. EC50 values were calculated by curve fitting normalized viability versus drug concentration. Differences in viability, caspase-3 activity, and tumor volume were analyzed using two-way ANOVA to identify differences and confirmed with paired two tailed t-tests. Mann-Whitney test was used to compare the difference in CBC and biochemistry analyses. Kaplan-Meier survival analyses were used to assess differences between treatment groups and were compared using a log-rank test. A p-value < 0.05 was considered significant for all analyses.

[2] = Toxicity evaluation on mice not bearing tumor (CBC, serum chemistry, pathology); format: in vivo, C57BL/6 mice; details: for Off-target effects by necropsy and laboratory evaluations: naïve C57BL/6 mice, continuous daily treatment; for Creatinine: control 0.34 ± 0.02; for RBC: control 7.14 ± 0.1; for WBC: control 10.58 ± 0.2; for HGB: control 10.7 ± 0.7; for MCH: control 15 ± 0.54; for BUN: control 27 ± 0.4; for MCHC: control 29.2 ± 1.21; for HCT: control 36.6 ± 0.08; for MCV: control 51.2 ± 0.32; for Glucose: control 62 ± 12.5; for ALT: control 260 ± 21; for Platelets: control 486 ± 67
Protocol: […] Mice from each treatment cohort were assessed for pathologic evaluation (Digestive Diseases Research Core Center at our institution). Blood was collected for complete blood count (CBC) and biochemical analysis (AST, ALT, BUN, total protein, glucose and Cr). Organs were examined grossly and histologically.

caspase-3 = assay: Caspase-Glo caspase-3 activity in Panc02 cells; format: cell-based, mouse; details: for Caspase-3 activation (in words): compared to DMSO control
Protocol: Caspase-3 activity was measured in Panc02 cell lines with a Caspase-Glo® Assay Systems (Promega) according to protocol in which the reagent contain luminogenic caspase substrates that cleaved by activated caspase. […] The contents were then mixed using plate shaker for 30 s, and incubated at room temperature for 90 min. Luminescence signal was measured using multi-mode microplate reader (BioTek). Assay was performed in triplicates, and caspase activity was plotted compared cells treated with DMSO as a control.

MIAPaCa-2 cells = assay: MTT cell viability, MIAPaCa-2; format: cell-based; details: Homo sapiens, MIA PaCa-2, 24 h treatment, viability relative to vehicle
Protocol: as §1, §2

Panc02 cells [3] = assay: MTT cell viability, Panc02; format: cell-based; details: Mus musculus, 24 h treatment, viability relative to vehicle
Protocol: as §1, §2

KP02 cells = assay: MTT cell viability, KP02; format: cell-based, mouse; details: Mus musculus, 24 h, 24 h treatment, viability relative to vehicle
Protocol: as §1, §2

Panc02 tumors = assay: In vivo tumor growth and survival, Panc02 tumors in C57BL/6 mice; details: for Effect on tumor volume (in words) / Mean tumor volume following conclusion of treatment: Panc02 s.c. in female C57BL/6; for Effect on tumor volume (in words): daily i.p. treatment, compared to vehicle or gemcitabine; for Mean tumor volume following conclusion of treatment: i.p. daily for two weeks (gemcitabine once weekly), vehicle mean = 924 mm^3
Protocol: In this pre-clinical model, we utilized the Panc02 cell line, which is weakly immunogenic in C57BL/6 mice and aggressive with a subcutaneous inoculum of 1 × 10^5 cells being lethal within 6–8 weeks. In vivo studies with mice were performed to compare the effect of sigma-2 ligands with gemcitabine. Mice treated with vehicle alone (a mixture of 5% DMSO, 5% EtOH, and 10% Cremophor in H2O) served as the control cohort. Female C57BL/6 mice (10 weeks old, National Cancer Institute Laboratories) were injected in the right flank with 200 μL of a single-cell suspension of Panc02 cells in non-supplemented RPMI medium (1 × 10^6 cells per mouse). Treatment began when the mean tumor diameter was ~ 5 mm. […] Tumors were measured three times weekly in two dimensions with a digital caliper, and tumor volumes were calculated by the standard formula of Tumor Volume = Length x Width^2 × 0.5. All mice were euthanized when tumors reached a diameter of 15 mm or had ulcerated.

sigma-2 receptor = details: ref Berardi, read-out: Affinity (Ki) σ2, cited from earlier work
Panc-1 cells = assay: MTT cell viability, Panc-1; format: cell-based; details: Homo sapiens, 24 h treatment, viability relative to vehicle
Protocol: as §1, §2

BxPC3 cells = assay: MTT cell viability, BxPC3; format: cell-based, human; details: Homo sapiens, BXPC-3, 24 h, 24 h treatment, viability relative to vehicle
Protocol: as §1, §2

KCKO cells = assay: MTT cell viability, KCKO; format: cell-based; details: Mus musculus, 24 h treatment, viability relative to vehicle
Protocol: as §1, §2

Panc02 cells [4] = assay: MitoSOX Red mitochondrial superoxide by flow cytometry, Panc02; format: cell-based, mouse; details: all pancreatic cancer cell lines tested (Panc02, AsPC-1, KP02, BxPC3); sigma-2 ligands 50 μM, 2 h, with α-tocopherol
Protocol: MitoSOX™ Red reagent is a novel fluorogenic dye specifically targeted to mitochondria in live cells. Oxidation of MitoSOX™ Red reagent by superoxide produces red fluorescence. Mitochondrial superoxide is generated as a byproduct of oxidative phosphorylation. […] MitoSOX™ Red reagent is readily oxidized by superoxide but not by other ROS- or reactive nitrogen species (RNS)–generating systems. Panc02, AsPC-1, KP-2 or BxPC3 cells were seeded into 12-well plates 24 h before treatment with sigma-2 ligands (50 μM) for 2 h at 37°C in presence or absence of α-tocopherol (100 μM) followed by staining with MitoSOX™ Red (5 μM). Two hours after red dye addition, the cells were washed twice with PBS and harvested with trypsin/EDTA buffer. The cells were washed twice with PBS before analysis with FACSCalibur (BD Bioscience, San Jose, CA). The oxidation product of MitoSOX™ Red by mitochondrial superoxide fluoresces with an emission maximus of 580 nm and was detected in the FL3 channel. Experiment was performed in triplicates.

[5] = not tumor-bearing C57BL/6 mice, n = 3, daily i.p., 5 days

CC(=O)N[C@@H](CS)C(=O)O [N-acetyl-L-cysteine (NAC), N-Acetyl-L-cysteine, reference compound]
Protection against sigma-2 ligand induced cell death (Panc02 viability) (Panc02 cells [1]): did not

COc1cccc2c1CCCC2CCCN1CCN(C2CCCCC2)CC1 (centres unmarked) [PB28, 1-Cyclohexyl-4-[3-(5-methoxy-1,2,3,4-tetrahydronaphthalen-1-yl)propyl] piperazine]
EC50 (AsPC-1 cells): > 100 µM
Off-target effects by necropsy and laboratory evaluations [2]: no major off-target effects
Creatinine [2, 5]: 0.37 ± 0.04 mg/dL
RBC [2, 5]: 10.24 ± 0.3 10^6/μL
WBC [2, 5]: 11.11 ± 1.97 10^3/μL
HGB [2, 5]: 15.65 ± 0.55 g/dL
MCH [2, 5]: 15.3 ± 0.1 pg
BUN [2, 5]: 32 ± 1 mg/dL
MCHC [2, 5]: 29.3 ± 0.2%
HCT [2, 5]: 53.4 ± 1.5%
MCV [2, 5]: 52.15 ± 0.05 fL
Glucose [2, 5]: 92.5 ± 22.5 mg/dL
ALT [2, 5]: 249 ± 9 μ/L
Platelets [2, 5]: 643.5 ± 95.5 10^3/μL
Caspase-3 activation (in words) (caspase-3; 200 μM, 5 h): did not activate at all
EC50 (MIAPaCa-2 cells): 51 µM
EC50 (Panc02 cells [3]): 43 µM
EC50 (KP02 cells): > 100 µM
Effect on tumor volume (in words) (Panc02 tumors): decreased tumor volume similar to gemcitabine alone
Mean tumor volume following conclusion of treatment (Panc02 tumors): 369 mm^3
Median survival (Panc02 tumors; Panc02 tumor-bearing C57BL/6 mice, treatment discontinued on day 15, DMSO (vehicle) 23 days): 27 days
Ki (sigma-2 receptor; et al. 2009 [26]): 0.00068 µM
EC50 (Panc-1 cells): > 100 µM
EC50 (BxPC3 cells): > 100 µM
EC50 (KCKO cells): 87 µM

COc1cccc2c(CCCN3CCN(C4CCCCC4)CC3)cccc12 [PB183, 1-Cyclohexyl-4-[3-(5-methoxynaphthalen-1-yl)propyl]-piperazine]
EC50 (AsPC-1 cells): > 100 µM
Off-target effects by necropsy and laboratory evaluations [2]: no major off-target effects
Creatinine [2, 5]: 0.37 ± 0.04 mg/dL
AST ([2]; not tumor-bearing C57BL/6 mice, n = 3, daily i.p., 5 days, control 5.6 ± 0.05): 5.4 ± 0.5 μ/L
RBC [2, 5]: 9.24 ± 0.9 10^6/μL
WBC [2, 5]: 6.42 ± 1.22 10^3/μL
HGB [2, 5]: 14.85 ± 1.35 g/dL
MCH [2, 5]: 16.1 ± 0.1 pg
BUN [2, 5]: 21 ± 2 mg/dL
MCHC [2, 5]: 30.4 ± 0.7%
HCT [2, 5]: 48.8 ± 3.3%
MCV [2, 5]: 52.9 ± 1.6 fL
ALT [2, 5]: 203 ± 34 μ/L
Platelets [2, 5]: 727.5 ± 65.5 10^3/μL
Caspase-3 activation (in words) (caspase-3; 200 μM, 5 h): little effect
Cell death on co-treatment with NAC (Panc02 cells [1]; Panc02 cells, ligand 50 μM with NAC 100 μM): even higher levels of cell death
EC50 (MIAPaCa-2 cells): 49 µM
EC50 (Panc02 cells [3]): 83 µM
EC50 (KP02 cells): 97 µM
Effect on tumor volume (in words) (Panc02 tumors): not effective
Ki (sigma-2 receptor; et al. 2004 [25]): 0.00924 µM
EC50 (Panc-1 cells): > 100 µM
EC50 (BxPC3 cells): 100 µM
EC50 (KCKO cells): 51 µM

COc1cccc2c1CCCC2CCCN1CCC(C2CCCCC2)CC1 (centres unmarked) [PB221, 4-Cyclohexyl-1-[3-(5-methoxy-1,2,3,4-tetrahydronaphthalen-1-yl-propyl)]piperidine]
EC50 (AsPC-1 cells): > 100 µM
Off-target effects by necropsy and laboratory evaluations [2]: no major off-target effects
Creatinine [2, 5]: 0.35 ± 0.03 mg/dL
RBC [2, 5]: 9.59 ± 0.71 10^6/μL
WBC [2, 5]: 8.12 ± 0.14 10^3/μL
HGB [2, 5]: 14.7 ± 0.8 g/dL
MCH [2, 5]: 15.35 ± 0.35 pg
BUN [2, 5]: 30.5 ± 3.5 mg/dL
MCHC [2, 5]: 29.25 ± 0.55%
HCT [2, 5]: 50.35 ± 3.75%
MCV [2, 5]: 52.5 ± 0.02 fL
Glucose [2, 5]: 64.5 ± 7.5 mg/dL
ALT [2, 5]: 219 ± 5 μ/L
Platelets [2, 5]: 563 ± 17 10^3/μL
Increase of caspase-3 activity compared to cells treated with DMSO vehicle (caspase-3; 200 μM, 5 h): 15.7 fold
EC50 (MIAPaCa-2 cells): 50 µM
EC50 (Panc02 cells [3]): 37 µM
EC50 (KP02 cells): > 100 µM
Effect on tumor volume (in words) (Panc02 tumors): did not confer a significantly different tumor volume than vehicle alone
Ki (sigma-2 receptor; et al. 2009 [26]): 0.0188 µM
EC50 (Panc-1 cells): > 100 µM
EC50 (BxPC3 cells): 100 µM
EC50 (KCKO cells): 19 µM

Nc1ccn([C@@H]2O[C@H](CO)[C@@H](O)C2(F)F)c(=O)n1 [gemcitabine, Gemcitabine, reference compound]
Mean tumor volume following conclusion of treatment (Panc02 tumors): 395 mm^3

Cc1c(C)c2c(c(C)c1O)CC[C@@](C)(CCC[C@H](C)CCC[C@H](C)CCCC(C)C)O2 [α-tocopherol, reference compound]
Effect on caspase activation caused by PB221 or PB282 (caspase-3; Z-DEVD-FMK 1 μM or α-tocopherol given before PB221, PB282 (200 μM, 5 h)): abrogates caspase-3 dependent cleavage
Protection against sigma-2 ligand induced cell death (Panc02 viability) (Panc02 cells [1]): protected against sigma-2 receptor ligands induced cell death
Effect on mitochondrial superoxide production following sigma-2 ligands treatment (Panc02 cells [4]): strongly decreased
